Where “and” joins values, the source holds several entries; their conditions need not be identical. Equal entries are not always repeated. Inconclusive results and toxic doses are left out. How the source made its calls: active means survival T/C of 150% or more; inactive means T/C below 125% in these data.
System: P388 leukemia ip, CD2F1 mice, survival T/C
Experiment: NCI In Vivo Anticancer Drug Screen. Data for tumor model P388 Leukemia (intraperitoneal) in CD2F1 (CDF1) mice
Settings: endpoint: median survival time, higher = longer survival
How it was run: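 Mice carrying the transplanted tumor received test compound or vehicle. Survival was recorded in each group, and the value is the treated-group measurement divided by that of the vehicle-treated control group.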

[1] = dose: 25.0 mg/kg/injection, schedule: Q01DX009 (ip), vehicle: saline with Tween-80
[2] = dose: 50.0 mg/kg/injection, schedule: Q01DX009 (ip), vehicle: saline with Tween-80
[3] = dose: 100.0 mg/kg/injection, schedule: Q01DX009 (ip), vehicle: saline with Tween-80
[4] = dose: 12.5 mg/kg/injection, schedule: Q01DX009 (ip), vehicle: saline
[5] = dose: 25.0 mg/kg/injection, schedule: Q01DX009 (ip), vehicle: saline
[6] = dose: 50.0 mg/kg/injection, schedule: Q01DX009 (ip), vehicle: saline
[7] = dose: 100.0 mg/kg/injection, schedule: Q01DX009 (ip), vehicle: saline
[8] = dose: 50.0 mg/kg/injection, schedule: Q01DX005 (ip), vehicle: Klucel (hydroxypropylcellulose) (HPC)
[9] = dose: 100.0 mg/kg/injection, schedule: Q01DX005 (ip), vehicle: Klucel (hydroxypropylcellulose) (HPC)
[10] = dose: 200.0 mg/kg/injection, schedule: Q01DX005 (ip), vehicle: Klucel (hydroxypropylcellulose) (HPC)
[11] = dose: 60.0 mg/kg/injection, schedule: Q01DX005 (ip), vehicle: saline with Tween-80
[12] = dose: 120.0 mg/kg/injection, schedule: Q01DX005 (ip), vehicle: saline with Tween-80
[13] = dose: 240.0 mg/kg/injection, schedule: Q01DX005 (ip), vehicle: saline with Tween-80
[14] = dose: 200.0 mg/kg/injection, schedule: Q01DX009 (ip), vehicle: saline
[15] = dose: 200.0 mg/kg/injection, schedule: Q01DX009 (ip), vehicle: saline with Tween-80

Measured: T/C

O=[N+]([O-])c1cccc2c(S(=O)(=O)O)cccc12
inactive: dose: 50.0 mg/kg/injection, schedule: Q04DX003 (ip), vehicle: saline 90 % of control | dose: 100.0 mg/kg/injection, schedule: Q04DX003 (ip), vehicle: saline 100 % of control | dose: 200.0 mg/kg/injection, schedule: Q04DX003 (ip), vehicle: saline 90 % of control

N#CCCNc1cc(O)c2c(c1O)C(=O)c1ccccc1C2=O
inactive: dose: 25.0 mg/kg/injection, schedule: Q01DX009 (ip), vehicle: other 88 % of control | dose: 50.0 mg/kg/injection, schedule: Q01DX009 (ip), vehicle: other 100 % of control | dose: 100.0 mg/kg/injection, schedule: Q01DX009 (ip), vehicle: other 95 % of control | dose: 200.0 mg/kg/injection, schedule: Q01DX009 (ip), vehicle: other 90 % of control

Cc1nnc(Cc2ccccc2)c2n[nH]c(C)c12
inactive: dose: 50.0 mg/kg/injection, schedule: Q01DX009 (ip), vehicle: Klucel (hydroxypropylcellulose) (HPC) 98 % of control | dose: 100.0 mg/kg/injection, schedule: Q01DX009 (ip), vehicle: Klucel (hydroxypropylcellulose) (HPC) 103 % of control | dose: 200.0 mg/kg/injection, schedule: Q01DX009 (ip), vehicle: Klucel (hydroxypropylcellulose) (HPC) 95 % of control

NC(Cc1ccccc1F)c1nn[nH]n1 (configuration not stated)
inactive: [1] 108 % of control | [2] 97 % of control | [3] 99 % of control

O=NN(CCCCl)C(=O)NC1CCCCC1
inactive: [4] 86 % of control | [5] 98 % of control | [6] 104 % of control | [7] 107 % of control

Nc1nc(=O)n(C2CCCCO2)cc1Br (configuration not stated)
inactive: [8] 104 % of control | [9] 109 % of control | [10] 97 % of control

O=[N+]([O-])c1cccc(S(=O)(=O)N/N=C/c2cc([N+](=O)[O-])cc(I)c2O)c1
inactive: [11] 103 % of control | [12] 95 % of control | [13] 111 % of control

COc1cc(NCCCCCCNCC(C)C)c2nccc(C)c2c1
inactive: dose: 6.25 mg/kg/injection, schedule: Q01DX009 (ip), vehicle: saline 95 % of control | [4] 95 % of control | [5] 96 % of control

CC(=O)/C(=C\c1ccccc1F)C(=O)CCN(C)C
inactive: dose: 60.0 mg/kg/injection, schedule: Q01DX005 (ip), vehicle: saline 109 % of control | dose: 120.0 mg/kg/injection, schedule: Q01DX005 (ip), vehicle: saline 118 % of control

CC(=O)OC(CCC1CO1)OC(C)=O (configuration not stated)
inactive: [6] 100 % of control | [7] 98 % of control | [14] 100 % of control

CC1=NN(C(=O)CC(=O)Nc2ccc(C(=O)O)cc2)C(=O)C1N=Nc1ccc(I)cc1 (configuration not stated)
inactive: dose: 100.0 mg/kg/injection, schedule: Q04DX002 (ip), vehicle: saline with Tween-80 96 % of control | dose: 200.0 mg/kg/injection, schedule: Q04DX002 (ip), vehicle: saline with Tween-80 98 % of control | dose: 400.0 mg/kg/injection, schedule: Q04DX002 (ip), vehicle: saline with Tween-80 120 % of control

CC(=O)C(C)S(=O)(=O)O (configuration not stated)
inactive: dose: 100.0 mg/kg/injection, schedule: Q01DX001 (ip), vehicle: saline 106 % of control | dose: 200.0 mg/kg/injection, schedule: Q01DX001 (ip), vehicle: saline 106 % of control | dose: 400.0 mg/kg/injection, schedule: Q01DX001 (ip), vehicle: saline 106 % of control

Cn1c(=O)c2c(c3ccccc31)OC(C)(C)C=C2
inactive: dose: 50.0 mg/kg/injection, schedule: Q01DX005 (ip), vehicle: saline with Tween-80 100 % of control | dose: 100.0 mg/kg/injection, schedule: Q01DX005 (ip), vehicle: saline with Tween-80 100 % of control | dose: 200.0 mg/kg/injection, schedule: Q01DX005 (ip), vehicle: saline with Tween-80 105 % of control

CC(NCNc1ccc2ccccc2c1)C(=O)O (configuration not stated)
inactive: [2] 104 % of control | [3] 106 % of control | [15] 98 % of control

CC(C)NCCCNc1c2ccccc2nc2cccc([N+](=O)[O-])c12
inactive: dose: 0.09 mg/kg/injection, schedule: Q01DX009 (ip), vehicle: saline 100 % of control and 86 % of control | dose: 0.19 mg/kg/injection, schedule: Q01DX009 (ip), vehicle: saline 100 % of control and 97 % of control | dose: 0.39 mg/kg/injection, schedule: Q01DX009 (ip), vehicle: saline 100 % of control and 106 % of control and 92 % of control | dose: 0.79 mg/kg/injection, schedule: Q01DX009 (ip), vehicle: saline 105 % of control and 123 % of control and 90 % of control | dose: 1.56 mg/kg/injection, schedule: Q01DX009 (ip), vehicle: saline 109 % of control

CC(=O)Nc1ccc(S(=O)(=O)N/N=C/c2cccc([N+](=O)[O-])c2O)cc1
inactive: [11] 104 % of control | [12] 104 % of control | [13] 103 % of control

O=C1OC(=Nc2cccc([N+](=O)[O-])c2)c2ccccc21
inactive: [1] 99 % of control and 103 % of control | [2] 100 % of control and 95 % of control | [3] 99 % of control and 95 % of control | [15] 88 % of control and 95 % of control

O=c1[nH]c(=S)[nH]c2nccnc12
inactive: dose: 100.0 mg/kg/injection, schedule: Q04DX003 (ip), vehicle: Klucel (hydroxypropylcellulose) (HPC) 105 % of control | dose: 200.0 mg/kg/injection, schedule: Q04DX003 (ip), vehicle: Klucel (hydroxypropylcellulose) (HPC) 118 % of control | dose: 400.0 mg/kg/injection, schedule: Q04DX003 (ip), vehicle: Klucel (hydroxypropylcellulose) (HPC) 112 % of control

CC1CCC2(OC2(C)C)C(=O)C1 (configuration not stated)
inactive: dose: 100.0 mg/kg/injection, schedule: Q04DX002 (ip), vehicle: saline 103 % of control | dose: 200.0 mg/kg/injection, schedule: Q04DX002 (ip), vehicle: saline 103 % of control | dose: 400.0 mg/kg/injection, schedule: Q04DX002 (ip), vehicle: saline 104 % of control

O=C(O)C1CSC(c2coc3ccccc3c2=O)N1 (configuration not stated)
inactive: dose: 50.0 mg/kg/injection, schedule: Q01DX009 (ip), vehicle: suspension in saline 108 % of control | dose: 100.0 mg/kg/injection, schedule: Q01DX009 (ip), vehicle: suspension in saline 117 % of control | dose: 200.0 mg/kg/injection, schedule: Q01DX009 (ip), vehicle: suspension in saline 108 % of control

Nc1nc(-c2c[nH]c(=O)[nH]c2=O)cs1
inactive: dose: 12.5 mg/kg/injection, schedule: Q01DX009 (ip), vehicle: saline with Tween-80 107 % of control | [1] 107 % of control | [2] 104 % of control

CC(=O)NO
inactive: [6] 104 % of control | [7] 96 % of control | [14] 103 % of control

CC1(C)Oc2ccc3ccc(=O)oc3c2C(O)C1O (configuration not stated)
inactive: [8] 97 % of control | [9] 96 % of control | [10] 92 % of control

O=C(CNC(=O)c1ccccc1)N/N=C/c1ccc2c(c1)OCO2
inactive: [1] 100 % of control | dose: 400.0 mg/kg/injection, schedule: Q01DX009 (ip), vehicle: saline with Tween-80 96 % of control

CC1(C)CO/C(=C/C(=O)c2ccccc2)N1C(=O)c1ccccc1
inactive: [11] 99 % of control | [12] 90 % of control

O=C(O)CNC(=O)OCC1c2ccccc2-c2ccccc21
inactive: [8] 100 % of control | [9] 95 % of control | [10] 100 % of control

O=C(CO)N(O)c1ccc(Cl)cc1
inactive: dose: 50.0 mg/kg/injection, schedule: Q01DX009 (ip), vehicle: water 109 % of control | dose: 100.0 mg/kg/injection, schedule: Q01DX009 (ip), vehicle: water 101 % of control
